Results reported in US5332820A, “Dibenzobicyclo(2.2.2) octane angiotensin II antagonists” (priority 1991, dated 1994).

Tests used:
Renal Hypertensive Rats = assay: Antihypertensive effects in renal hypertensive rats, intravenous activity; type: in vivo, rat; settings: awake renal artery-ligated rats; i.v.; 10 mg/kg (footnote)
Experimental: This procedure increases blood pressure by increasing renin production with consequent elevation of AII levels. […] Arterial blood pressure is continuously measured directly through a carotid artery cannula and recorded using a pressure transducer and a polygraph. Blood pressure levels after treatment are compared to pretreatment levels to determine the antihypertensive effects of the compounds which were tested.

[1] = biological target: AII receptor (rat adrenal cortical microsomes); assay: Angiotensin II receptor binding (ligand-receptor binding assay; displacement of 3H-AII or 125I-AII); settings: 2 nM 3H-AII or 0.05 nM 125I-AII, 1 hour, room temperature
Experimental: The hormone angiotensin II (AII) produces numerous biological responses, e.g., vasoconstriction, through stimulation of its receptors on cell membranes. For the purpose of identifying compounds such as AII antagonists which are capable of interacting with the AII receptor, a ligand-receptor binding assay was utilized for the initial screen. The assay was carried out according to the method described by Glossmann, et al., J. Biol. Chem., 249, 825 (1974), but with some modifications. The reaction mixture contained rat adrenal cortical microsomes (source of AII receptor) in Tris buffer and 2 nM of ^3 H-AII or 0.05 nM ^125 I-AII with or without potential AII antagonist. This mixture was incubated for 1 hour at room temperature and the reaction was subsequently terminated by rapid filtration and rinsing through glass micro-fibre filter. Receptor-bound ^3 H-AII or ^125 I-AII trapped in filter was quantitated by scintillation counting. The inhibitory concentration (IC50) of potential AII antagonist which gives 50% displacement of the total specifically bound ^3 H-AII or ^125 I-AII is a measure of the affinity of such compound for the AII receptor.

[2] = system: arterial pressure in mammals and man; settings: cited from earlier work
[3] = system: renal vasoconstrictor effect of indomethacin and meclofenamate; settings: dogs; cited from earlier work
[4] = system: effects of AII on the blood pressure of pithed rats; settings: cited from earlier work
[5] = system: renal vasoconstrictor effect of indomethacin; settings: dogs with non-hypotensive hemorrhage; cited from earlier work

| SMILES | Antihypertensive Effects in Renal Hypertensive Rats, Intravenous Activity (Renal Hypertensive Rats) | IC50 [1] | further results |
| --- | --- | --- | --- |
| CCCCc1nc(Cl)c(C=O)n1Cc1ccc2c(c1)C1c3ccccc3C2C(C(=O)O)C1C(=O)O (mixture of isomers) [Example 1, (±)-cis-2-[(2-n-butyl-4-chloro-5-formylimidazol-1-yl)methyl]-9,10-dihydro-9,10-ethanoanthracene-11,12-dicarboxylic acid, a mixture of endo and oxo isomers] | + (Significant decrease in blood pressure at 10 mg/kg or less) | 1100 nM | – |
| CCCCc1nc(Cl)c(C=O)n1Cc1ccc2c(c1)C1c3ccccc3C2C(C(=O)O)C1C(=O)O (mixture of isomers) [Example 2A, (±)-trans-2-[(2-n-butyl-4-chloro-5-formylimidazol-1-yl)methyl]-9,10-dihydro-9,10-ethanoanthracene-11,12-dicarboxylic acids, both diastereomers] | + (Significant decrease in blood pressure at 10 mg/kg or less) | 220 nM | – |
| CCCCc1nc(Cl)c(C=O)n1Cc1ccc2c(c1)C1c3ccccc3C2C(C(=O)O)C1C(=O)O (mixture of isomers) [Example 2B, (±)-trans-2-[(2-n-butyl-4-chloro-5-formylimidazol-1-yl)methyl]-9,10-dihydro-9,10-ethanoanthracene-11,12-dicarboxylic acids, both diastereomers] | + (Significant decrease in blood pressure at 10 mg/kg or less) | 320 nM | – |
| CCCCc1nc(Cl)c(C=O)n1Cc1ccc2c(c1)C1c3ccccc3C2C(c2nnn[nH]2)C1c1nnn[nH]1 (mixture of isomers) [Example 3, (±)-trans-2-[(2-n-butyl-4-chloro-5-formylimidazol-1-yl)methyl]-9,10-dihydro-9,10-ethano-11,12-bis (1H-tetrazol-5-yl)anthracene, both diastereomers] | + (Significant decrease in blood pressure at 10 mg/kg or less) | 92 nM | – |
| CCCCc1nc(Sc2ccccc2)c(C=O)n1Cc1ccc2c(c1)C1c3ccccc3C2C(c2nnn[nH]2)C1c1nnn[nH]1 (mixture of isomers) [Example 4, (±)-trans-2-[(2-n-butyl-4-phenylthio-5-formylimidazol-l-yl)methyl]-9,10-dihydro-9,10-ethano-11,12-bis (1H-tetrazol-5-yl) anthracene: one diastereomer] | + (Significant decrease in blood pressure at 10 mg/kg or less) | 460 nM | – |
| CNCC(=O)N[C@@H](CCCN=C(N)N)C(=O)N[C@H](C(=O)N[C@@H](Cc1ccc(O)cc1)C(=O)N[C@H](C(=O)N[C@@H](Cc1cnc[nH]1)C(=O)N1CCC[C@H]1C(=O)N[C@@H](C)C(=O)O)C(C)C)C(C)C [Saralasin] | – | – | effect on arterial pressure when the (elevated) pressure is dependent on circulating AII ([2]; mammals and man, AII-dependent pressure): lower arterial pressure in mammals and man; oral effectiveness ([2]; oral doses): oral doses being ineffective; duration of action ([2]; parenteral administration): relatively short-lasting; effect when the pressure is not sustained by AII (agonistic character) ([2]; pressure not sustained by AII): generally elicits pressor effects; inhibition of renal vasoconstrictor effect of indomethacin and meclofenamate [3]: inhibit the renal vasoconstrictor effect of indomethacin and meclofenamate in dogs; block of the effects of AII on blood pressure of pithed rats [4]: blocks the effects of AII on the blood pressure of pithed rats |
| C[C@H](CS)C(=O)N1CCC[C@H]1C(=O)O [captopril] | – | – | reversal of renal vasoconstrictor effect of indomethacin [5]: reverse the renal vasoconstrictor effect of indomethacin in dogs |
